Reference: PubChem BioAssay AID1259407 (Chemical Carcinogenesis Research Information System (CCRIS), 2018)
Active and inactive are the calls of the source. No rule for the calls is given here.

System: CCRIS mutagenicity, Ames/micronucleus/aberration tests
Assay: CCRIS mutagenicity studies
[1] = Test System: AMES SALMONELLA TYPHIMURIUM, Strain/Indicator: TA97, Metabolic Activation: HAMSTER, LIVER, S-9, AROCLOR 1254 (10%), Method: PREINCUBATION
[2] = Test System: AMES SALMONELLA TYPHIMURIUM, Strain/Indicator: TA97, Metabolic Activation: NONE, Method: PREINCUBATION
[3] = Test System: AMES SALMONELLA TYPHIMURIUM, Strain/Indicator: TA97, Metabolic Activation: RAT, LIVER, S-9, AROCLOR 1254 (10%), Method: PREINCUBATION
[4] = Test System: AMES SALMONELLA TYPHIMURIUM, Strain/Indicator: TA98, Metabolic Activation: HAMSTER, LIVER, S-9, AROCLOR 1254 (10%), Method: PREINCUBATION
[5] = Test System: AMES SALMONELLA TYPHIMURIUM, Strain/Indicator: TA98, Metabolic Activation: NONE, Method: PREINCUBATION
[6] = Test System: AMES SALMONELLA TYPHIMURIUM, Strain/Indicator: TA98, Metabolic Activation: RAT, LIVER, S-9, AROCLOR 1254 (10%), Method: PREINCUBATION
[7] = Test System: AMES SALMONELLA TYPHIMURIUM, Strain/Indicator: TA100, Metabolic Activation: HAMSTER, LIVER, S-9, AROCLOR 1254 (10%), Method: PREINCUBATION
[8] = Test System: AMES SALMONELLA TYPHIMURIUM, Strain/Indicator: TA100, Metabolic Activation: NONE, Method: PREINCUBATION
[9] = Test System: AMES SALMONELLA TYPHIMURIUM, Strain/Indicator: TA100, Metabolic Activation: RAT, LIVER, S-9, AROCLOR 1254 (10%), Method: PREINCUBATION
[10] = Test System: AMES SALMONELLA TYPHIMURIUM, Strain/Indicator: TA1535, Metabolic Activation: HAMSTER, LIVER, S-9, AROCLOR 1254 (10%), Method: PREINCUBATION
[11] = Test System: AMES SALMONELLA TYPHIMURIUM, Strain/Indicator: TA1535, Metabolic Activation: NONE, Method: PREINCUBATION
[12] = Test System: AMES SALMONELLA TYPHIMURIUM, Strain/Indicator: TA1535, Metabolic Activation: RAT, LIVER, S-9, AROCLOR 1254 (10%), Method: PREINCUBATION
[13] = Test System: AMES SALMONELLA TYPHIMURIUM, Strain/Indicator: TA97, Metabolic Activation: NONE, Method: STANDARD PLATE
[14] = Test System: AMES SALMONELLA TYPHIMURIUM, Strain/Indicator: TA98, Metabolic Activation: NONE, Method: STANDARD PLATE
[15] = Test System: AMES SALMONELLA TYPHIMURIUM, Strain/Indicator: TA98, Metabolic Activation: RAT, LIVER, S-9, AROCLOR 1254, Method: STANDARD PLATE
[16] = Test System: AMES SALMONELLA TYPHIMURIUM, Strain/Indicator: TA100, Metabolic Activation: NONE, Method: STANDARD PLATE
[17] = Test System: AMES SALMONELLA TYPHIMURIUM, Strain/Indicator: TA100, Metabolic Activation: RAT, LIVER, S-9, AROCLOR 1254, Method: STANDARD PLATE
[18] = Test System: AMES SALMONELLA TYPHIMURIUM, Strain/Indicator: TA98, Metabolic Activation: HAMSTER, LIVER, S-9, AROCLOR 1254 (30%), Method: PREINCUBATION
[19] = Test System: AMES SALMONELLA TYPHIMURIUM, Strain/Indicator: TA98, Metabolic Activation: RAT, LIVER, S-9, AROCLOR 1254 (30%), Method: PREINCUBATION
[20] = Test System: AMES SALMONELLA TYPHIMURIUM, Strain/Indicator: TA100, Metabolic Activation: HAMSTER, LIVER, S-9, AROCLOR 1254 (30%), Method: PREINCUBATION
[21] = Test System: AMES SALMONELLA TYPHIMURIUM, Strain/Indicator: TA100, Metabolic Activation: RAT, LIVER, S-9, AROCLOR 1254 (30%), Method: PREINCUBATION

## OCCCBr
[1]
  mutagenic call: inactive; negative
[2]
  mutagenic call: inactive; negative
[3]
  mutagenic call: inactive; negative
[4]
  mutagenic call: inactive; negative
[5]
  mutagenic call: inactive; negative
[6]
  mutagenic call: inactive; negative
[7]
  mutagenic call: active; positive
[8]
  mutagenic call: active; positive
[9]
  mutagenic call: active; positive
[10]
  mutagenic call: active; positive
[11]
  mutagenic call: active; positive
[12]
  mutagenic call: active; positive

## CC1CCC(C(C)C)C(=O)C1 (stereo not drawn)
[13]
  mutagenic call: active; positive
[14]
  mutagenic call: inactive; negative
[15]
  mutagenic call: inactive; negative
[16]
  mutagenic call: inactive; negative
[17]
  mutagenic call: inactive; negative
Test System: AMES SALMONELLA TYPHIMURIUM, Strain/Indicator: TA1535, Metabolic Activation: NONE, Method: STANDARD PLATE
  mutagenic call: inactive; negative
Test System: AMES SALMONELLA TYPHIMURIUM, Strain/Indicator: TA1535, Metabolic Activation: RAT, LIVER, S-9, AROCLOR 1254, Method: STANDARD PLATE
  mutagenic call: inactive; negative
Test System: AMES SALMONELLA TYPHIMURIUM, Strain/Indicator: TA1537, Metabolic Activation: NONE, Method: STANDARD PLATE
  mutagenic call: inactive; negative
Test System: AMES SALMONELLA TYPHIMURIUM, Strain/Indicator: TA1537, Metabolic Activation: RAT, LIVER, S-9, AROCLOR 1254, Method: STANDARD PLATE
  mutagenic call: inactive; negative

## CCN(Cc1cccc(S(=O)(=O)[O-])c1)c1ccc(C(=C2C=CC(=[N+](C)C)C=C2)c2ccc(N(CC)Cc3cccc(S(=O)(=O)O)c3)cc2)cc1
[18]
  mutagenic call: active; positive
[5]
  mutagenic call: inactive; negative
[19]
  mutagenic call: active; positive
Test System: AMES SALMONELLA TYPHIMURIUM, Strain/Indicator: TA98, Metabolic Activation: RAT, LIVER, S-9, KC500 OR PHENOBARBITAL, Method: LIQUID SUSPENSION
  mutagenic call: active; positive
[20]
  mutagenic call: inactive; negative
[8]
  mutagenic call: inactive; negative
[21]
  mutagenic call: inactive; negative
Test System: Mouse lymphoma, Strain/Indicator: L5178Y (tk+/tk-), Metabolic Activation: None, Method: Suspension/plate
  mutagenic call: active; positive
Test System: Mouse lymphoma, Strain/Indicator: L5178Y (tk+/tk-), Metabolic Activation: Rat,Liver, S-9, Aroclor 1254, Method: Suspension/plate
  mutagenic call: inactive; negative

## O=[N+]([O-])c1ccc2c(c1)CCc1ccccc1-2
Test System: AMES SALMONELLA TYPHIMURIUM, Strain/Indicator: TA98(1,8-DNP6), Metabolic Activation: NONE, Method: STANDARD PLATE
  mutagenic call: active; positive
Test System: AMES SALMONELLA TYPHIMURIUM, Strain/Indicator: TA98(NR), Metabolic Activation: NONE, Method: STANDARD PLATE
  mutagenic call: active; positive
[14]
  mutagenic call: active; positive

## CCCCCN1C2c3ccccc3-c3ccccc3C21 (stereo not drawn)
[16]
  mutagenic call: active; positive

## CS(=O)CC[C@H](N)C(=O)O.Cc1ccc(NCC(=O)N(CC(=O)O)CC(=O)O)c(C)c1.[H+].[H+].[Pt]
Test System: MOUSE LYMPHOMA, Strain/Indicator: L5178Y(LY-R) (HGPRT)/6-THIOGUANINE, Metabolic Activation: NONE
  mutagenic call: active; positive

## N#C/C(N)=C(/N)C#N
[1]
  mutagenic call: inactive; negative
Test System: AMES SALMONELLA TYPHIMURIUM, Strain/Indicator: TA97, Metabolic Activation: HAMSTER, LIVER, S-9, AROCLOR 1254 (30%), Method: PREINCUBATION
  mutagenic call: inactive; negative
[2]
  mutagenic call: inactive; negative
[3]
  mutagenic call: inactive; negative
Test System: AMES SALMONELLA TYPHIMURIUM, Strain/Indicator: TA97, Metabolic Activation: RAT, LIVER, S-9, AROCLOR 1254 (30%), Method: PREINCUBATION
  mutagenic call: inactive; negative
[4]
  mutagenic call: inactive; negative
[18]
  mutagenic call: inactive; negative
[5]
  mutagenic call: inactive; negative
[6]
  mutagenic call: inactive; negative
[19]
  mutagenic call: inactive; negative
[7]
  mutagenic call: inactive; negative
[20]
  mutagenic call: inactive; negative
[8]
  mutagenic call: inactive; negative
[9]
  mutagenic call: inactive; negative
[21]
  mutagenic call: inactive; negative
[10]
  mutagenic call: inactive; negative
Test System: AMES SALMONELLA TYPHIMURIUM, Strain/Indicator: TA1535, Metabolic Activation: HAMSTER, LIVER, S-9, AROCLOR 1254 (30%), Method: PREINCUBATION
  mutagenic call: inactive; negative
[11]
  mutagenic call: inactive; negative
[12]
  mutagenic call: inactive; negative
Test System: AMES SALMONELLA TYPHIMURIUM, Strain/Indicator: TA1535, Metabolic Activation: RAT, LIVER, S-9, AROCLOR 1254 (30%), Method: PREINCUBATION
  mutagenic call: inactive; negative
Test System: MOUSE LYMPHOMA, Strain/Indicator: L5178Y (TK+/TK-), Metabolic Activation: NONE, Method: SUSPENSION/PLATE
  mutagenic call: active; positive. reevaluation of results: positive
Test System: MOUSE LYMPHOMA, Strain/Indicator: L5178Y (TK+/TK-), Metabolic Activation: RAT, LIVER, S-9, AROCLOR 1254, Method: SUSPENSION/PLATE
  mutagenic call: active; positive. reevaluation of results: positive

## ClCC(Cl)(Cl)Cl
End Point: IN VITRO CHROMOSOMAL ABERRATIONS, Test System: CHINESE HAMSTER LUNG FIBROBLAST CELLS (CHL/IU), Metabolic Activation: RAT, LIVER, S-9, PHENOBARBITAL AND 5,6-BENZOFLAVONE
  mutagenic call: active; positive (ploidy)
End Point: IN VITRO CHROMOSOMAL ABERRATIONS, Test System: CHINESE HAMSTER OVARY CELLS, Metabolic Activation: NONE
  mutagenic call: inactive; negative; precipitation occurred at all doses
End Point: IN VITRO CHROMOSOMAL ABERRATIONS, Test System: CHINESE HAMSTER OVARY CELLS, Metabolic Activation: RAT, LIVER, S-9, AROCLOR 1254
  mutagenic call: inactive; negative; precipitation occurred at all doses
[13]
  mutagenic call: inactive; negative
Test System: AMES SALMONELLA TYPHIMURIUM, Strain/Indicator: TA97, Metabolic Activation: RAT, LIVER, S-9, AROCLOR 1254, Method: STANDARD PLATE
  mutagenic call: active; positive
[14]
  mutagenic call: active; positive
[15]
  mutagenic call: active; positive
[16]
  mutagenic call: active; positive
[17]
  mutagenic call: active; positive
Test System: AMES SALMONELLA TYPHIMURIUM, Strain/Indicator: TA104, Metabolic Activation: NONE, Method: STANDARD PLATE
  mutagenic call: inactive; negative
Test System: AMES SALMONELLA TYPHIMURIUM, Strain/Indicator: TA104, Metabolic Activation: RAT, LIVER, S-9, AROCLOR 1254, Method: STANDARD PLATE
  mutagenic call: active; positive
